This is an account of results in patent US20160120915A1, “METHODS FOR MANIPULATING IMMUNE RESPONSES BY ALTERING MICROBIOTA” (NEW YORK UNIVERSITY, priority 2013, published 2016).

Structures can show the parent of a compound that is named as a salt.

Assay [1] deals with small intestine lamina propria lymphocytes. As to the kind of experiment: EL-PAT: flow cytometry of small intestine lamina propria lymphocytes. It is filed as in vivo, C57BL/6 mice. Conditions: 7-week old; for small intestine CD4+ IL-17A+ (IL-17A expression): males, vs control. As to the method: For the experiments, dams and their litters were divided into control and antibiotic groups. In the EL-PAT study dams in the antibiotic groups received Tylosin tartrate (Sigma Aldrich, St. Louis Mo.) dissolved in distilled deionized water (neutral pH) at a concentration of 0.33 mg/ml, and dams in the control group received non-acidified water. Mice in the PAT3 group received two additional doses of antibiotics at day 27 and 36 of life for 3 days. In some experiments, C57BL/6 mice were exposed to one, PAT1, (n=17, M=9, F=8) or three, PAT3, (n=19, M=10, F=9) doses of the macrolide Tylosin in non-acidified water or non-acidified water alone (control, n=12, M=9, F=3), early-in-life, to mirror pediatric antibiotic exposures. For the first antibiotic pulse […] of Tylosin tartrate (Sigma) was dissolved in 250 ml of non-acidified water and given to PAT1 and PAT3 lactating dams at pup day 5 of life for 5 days. For the second and third pulse, pups received the antibiotic directly at day 27 and day 36 of life respectively, for three days. Mice were sacrificed at 7 weeks of age and fecal, ileal and cecal contents were collected. Throughout the experiment mouse weight and fecal contents were collected. After euthanasia of the mice by CO2 asphyxiation, small intestines were excised and placed in cold calcium and magnesium-free HBSS supplemented with HEPES-Bicarbonate and 5% FBS (CMF). Peyer's patches were removed and the intestine was opened longitudinally along its entire length. Intestinal contents were removed by washing thoroughly with cold CMF and treated with 1 mM DTT to remove contaminating intra-epithelial lymphocytes. Subsequently, the intestinal tissue was treated twice with 1.3 mM EDTA to remove epithelial cells. To isolate lamina propria lymphocytes, intestinal tissue was cut laterally into ˜0.5 cm pieces and digested in collagenase IV digestion mix (0.5 mg/ml of collagenase IV, 200 ug/ml of DNase 1 suspended in RPMI supplemented with 10% FBS and HEPES for 1 hour. For each digestion procedure, samples were incubated at 37° C. with vigorous shaking After each treatment, cell isolates were filtered through 100 μm diameter nylon mesh (BD Bioscience). For further purification of leukocytes, intestinal cell suspensions were subjected to a 44% /67% discontinuous Percoll (GE Healthcare Life Sciences) gradient. Cells were spun at 2,200 rpm for 20 minutes and collected at the 44% /67% Percoll interface. Viable cells were carefully removed from the interface, washed, and suspended in RPMI complete media. […] All cells were acquired on a LSRII (BD Bioscience) and analyzed using FlowJo software (version 9.3.2; Tree Star Inc.). […]
On the technique in general: In flow cytometry, cells or beads pass a laser one at a time.

The test system of assay [2] is splenic CD4+ and CD8+ T-cells. Put plainly: NOD: flow cytometry of IFNγ-producing splenic T-cells. It is filed as in vivo. As to conditions: 6-week old male NOD mice, n=7, vs controls, p<0.01. As to the method: Leukocytes were isolated from spleens harvested from 6-week old control (n=7) and PAT-treated (n=7) NOD mice. Flow cytometric analysis was performed to assess T-cell cytokine production. Mann-Whitney U-test, ** p<0.01. Bar heights represent the means and error bars represent the standard deviations. […] Taxa with at least two significant timepoints (indicated by *) are illustrated at the phylum, genus, and species level. Dark grey and light grey coloration indicates enrichment at the specified time point in control and in PAT specimens, respectively.

In assay [3] the test system is SAA genes in terminal ileum. As to the kind of experiment: NOD: SAA 1, 2, 3 gene expression in terminal ileum by qPCR. It is filed as in vivo. Conditions: 6-week old NOD male mice, qPCR normalized to 18S rRNA, p<0.05. On the procedure:
The distal ileum (1 cm) without Peyer's Patches was collected from each mouse for RNA extraction and kept in RNAlater (Ambion) overnight at 4° C. Samples were stored at −80° C. until RNA extraction was performed.
Total RNA was extracted from mouse tissues using the RNeasy Mini Kit with on-column DNase treatment to remove contaminating gDNA (Qiagen), according to the manufacturer's instructions. 1 μg of total RNA was reverse transcribed to cDNA using Super Script II (Applied Biosystems) according to the manufacturer's instructions. To generate standards for expression analysis of each target gene, the cDNA region of interest was PCR-amplified and the product cloned into pGEM-T easy (Promega). qPCR was performed with Power SYBR Green PCR Master mix (Roche) and run in a LightCycler 480 system (Roche). Target mRNA was normalized to 18S rRNA as an internal control in each sample.
RNA was extracted from the terminal ileum of the 6-week old NOD mice. […] RNA was reverse transcribed into cDNA and then qPCR was performed for SAA1, 2, or 3 using an absolute quantitation method. Gene expression data were normalized to 18S rRNA expression. […] The results for this experiment show consistent decreases in expression of the SAA genes in the ileum, detected by two independent methods (microarray and qPCR). […]
In general terms: Real-time PCR tracks product formation cycle by cycle.

The next assay deals with ileal tissue structure. Put plainly: Ileal atrophy scoring in H&E stained ileum. It is filed as in vivo, C57BL/6J mice. Conditions: 4-week old mice, n=5 each, p<0.05 Mann-Whitney U, vs control. An excerpt:
Atrophy was scored in hematoxylin and eosin (H&E) stained ileum samples from 4-week old control and STAT mice (n=5 each).
Ileal tissues from 4-week-old control and STAT mice were formalin fixed and paraffin embedded, cut, and stained with hemotoxylin and eosin (H&E). 4 slides were scored for ileal atrophy per mouse and the average score per mouse was averaged.

As for `CC[C@H]1OC(=O)C[C@@H](O)[C@H](C)[C@@H](O[C@@H]2O[C@H](C)[C@@H](O[C@H]3C[C@@](C)(O)[C@@H](O)[C@H](C)O3)[C@H](N(C)C)[C@H]2O)[C@@H](CC=O)C[C@@H](C)C(=O)/C=C/C(C)=C/[C@@H]1CO[C@@H]1O[C@H](C)[C@@H](O)[C@@H](OC)[C@H]1OC` [Tylosin, Tylosin tartrate], in assay [1] (females, three antibiotic doses, p<0.01), the “intestinal CD4+ IL-17A+ populations” value is reported as “significantly decreased”. For the same compound, the “CD4− IL-17A+ populations” value in assay [1] (females, three therapeutic doses, p<0.05) was “decreased”. Further, the “small intestine CD4+ IL-17A+ (IL-17A expression)” value in assay [1] (one therapeutic dose) and in assay [1] (three therapeutic doses) was “significantly decreased” each time. The “proportion of IFNγ-producing splenic CD4+ T-cells” value in assay [2] is “increased”. The “proportion of IFNγ-producing splenic CD8+ T-cells” value in assay [2] was “increased”. In addition, the “SAA gene expression (SAA 1, 2, 3) in the terminal ileum” value in assay [3] was “significantly decreases”.
Consider `CC1(C)S[C@@H]2[C@H](NC(=O)COc3ccccc3)C(=O)N2[C@H]1C(=O)[O-].[K+]` [STAT, penicillin VK], for which the ileal atrophy entry in the assay on ileal tissue structure is reported as “significantly more”.
